# What was measured:
# [1] = biological target: T1, RAC-alpha serine/threonine-protein kinase (Homo sapiens, UniProt P31749); test: Inhibition of Akt1 in human AN3CA cells assessed as phosphorylation PRAS40 at T246 after 2 hrs by Western Blot analysis; type: cell-based, AN3-CA
# [2] = biological target: T2, Cytochrome P450 2C8 (Homo sapiens, UniProt P10632); test: Inhibition of CYP2C8 in human liver microsomes using paclitaxel as substrate after 10 mins; type: ADME, Microsome
# T2 sequence (P10632 whole entry): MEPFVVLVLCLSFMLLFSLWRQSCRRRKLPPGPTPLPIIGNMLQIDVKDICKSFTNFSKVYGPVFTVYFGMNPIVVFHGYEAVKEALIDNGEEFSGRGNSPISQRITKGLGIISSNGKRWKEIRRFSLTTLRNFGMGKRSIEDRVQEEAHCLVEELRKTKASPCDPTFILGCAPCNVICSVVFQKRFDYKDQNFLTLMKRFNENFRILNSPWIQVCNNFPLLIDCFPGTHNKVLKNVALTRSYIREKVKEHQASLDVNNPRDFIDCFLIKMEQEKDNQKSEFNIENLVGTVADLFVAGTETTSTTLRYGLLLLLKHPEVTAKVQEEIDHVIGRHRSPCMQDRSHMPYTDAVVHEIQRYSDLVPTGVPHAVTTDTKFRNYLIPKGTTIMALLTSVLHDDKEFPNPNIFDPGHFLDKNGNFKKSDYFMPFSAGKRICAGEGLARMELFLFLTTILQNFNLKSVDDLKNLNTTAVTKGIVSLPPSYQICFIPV
# [3] = tested on: A2780; test: Antiproliferative activity against human A2780 cells after 72 hrs by MTS assay; type: functional, cell-based; details: A2780, 72 h
# [4] = biological target: T3, Cytochrome P450 1A2 (Homo sapiens, UniProt P05177); test: Inhibition of CYP1A2 in human liver microsomes using phenacetin as substrate after 10 mins; type: ADME, Microsome
# T3 sequence (P05177 whole entry): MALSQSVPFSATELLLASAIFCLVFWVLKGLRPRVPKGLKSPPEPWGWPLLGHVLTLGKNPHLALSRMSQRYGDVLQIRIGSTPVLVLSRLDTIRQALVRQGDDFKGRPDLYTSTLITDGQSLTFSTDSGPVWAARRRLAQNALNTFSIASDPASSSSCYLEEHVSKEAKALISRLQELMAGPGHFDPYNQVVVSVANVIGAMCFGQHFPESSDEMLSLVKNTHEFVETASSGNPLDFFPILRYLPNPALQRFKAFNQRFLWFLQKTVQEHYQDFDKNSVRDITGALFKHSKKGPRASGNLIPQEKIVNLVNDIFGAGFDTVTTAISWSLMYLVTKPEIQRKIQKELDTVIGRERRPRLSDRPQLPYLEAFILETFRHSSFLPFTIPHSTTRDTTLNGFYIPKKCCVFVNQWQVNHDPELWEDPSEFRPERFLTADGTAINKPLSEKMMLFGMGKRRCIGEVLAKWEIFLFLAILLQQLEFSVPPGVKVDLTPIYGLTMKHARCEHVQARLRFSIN
# [5] = biological target: Fibroblast growth factor receptor 1 (Homo sapiens) (UniProt P11362); test: Inhibition of FGFR1 using fluorescent labelled substrate at 5 uM by caliper method
# [6] = biological target: Protein kinase C gamma type (Homo sapiens) (UniProt P05129); test: Inhibition of PKCgamma using fluorescent labelled substrate at 5 uM by caliper method
# [7] = biological target: Proto-oncogene tyrosine-protein kinase receptor Ret (Homo sapiens) (UniProt P07949); test: Inhibition of RET using fluorescent labelled substrate at 5 uM by caliper method
# [8] = biological target: T1, RAC-alpha serine/threonine-protein kinase; details: Sf9
# [9] = biological target: Cytochrome P450 2C9 (Homo sapiens, UniProt P11712); test: Inhibition of CYP2C9 in human liver microsomes using tolbutamide as substrate after 10 mins; type: ADME, Microsome
# [10] = biological target: Cyclin-dependent kinase 5/CDK5 activator 1 (Homo sapiens) (UniProt Q00535+Q15078); test: Inhibition of CDK5/p35 using fluorescent labelled substrate at 5 uM by caliper method; type: protein-complex assay
# [11] = biological target: Protein kinase C eta type (Homo sapiens) (UniProt P24723); test: Inhibition of PKCeta using fluorescent labelled substrate at 5 uM by caliper method
# [12] = biological target: T1, RAC-alpha serine/threonine-protein kinase; test: Inhibition of Akt1 (1 to 480) expressed in Sf9 cells using biotin-GRPRTSSFAEG as substrate after 20 mins by Alpha-screen assay
# [13] = biological target: Ribosomal protein S6 kinase alpha-5 (Homo sapiens) (UniProt O75582); test: Inhibition of MSK1 using fluorescent labelled substrate at 5 uM by caliper method
# [14] = biological target: Rho-associated protein kinase 1 (Homo sapiens) (UniProt Q13464); test: Inhibition of ROCK1 using fluorescent labelled substrate at 5 uM by caliper method
# [15] = biological target: Macrophage colony-stimulating factor 1 receptor (Homo sapiens) (UniProt P07333); test: Inhibition of FMS using fluorescent labelled substrate at 5 uM by caliper method
# [16] = biological target: Serine/threonine-protein kinase Sgk2 (Homo sapiens) (UniProt Q9HBY8); test: Inhibition of SGK2 using fluorescent labelled substrate at 5 uM by caliper method
# [17] = biological target: Serine/threonine-protein kinase pim-1 (Homo sapiens) (UniProt P11309); test: Inhibition of PIM1 using fluorescent labelled substrate at 5 uM by caliper method
# [18] = Inhibition of PKA using fluorescent labelled substrate at 5 uM by caliper method
# [19] = biological target: 3-phosphoinositide-dependent protein kinase 1 (Homo sapiens) (UniProt O15530); test: Inhibition of PDK1 using fluorescent labelled substrate at 5 uM by caliper method
# [20] = biological target: T1, RAC-alpha serine/threonine-protein kinase; test: Inhibition of Akt1 (1 to 480) expressed in Sf9 cells by indirect affinity mass spectrometry assay
# T1 sequence (P31749 whole entry): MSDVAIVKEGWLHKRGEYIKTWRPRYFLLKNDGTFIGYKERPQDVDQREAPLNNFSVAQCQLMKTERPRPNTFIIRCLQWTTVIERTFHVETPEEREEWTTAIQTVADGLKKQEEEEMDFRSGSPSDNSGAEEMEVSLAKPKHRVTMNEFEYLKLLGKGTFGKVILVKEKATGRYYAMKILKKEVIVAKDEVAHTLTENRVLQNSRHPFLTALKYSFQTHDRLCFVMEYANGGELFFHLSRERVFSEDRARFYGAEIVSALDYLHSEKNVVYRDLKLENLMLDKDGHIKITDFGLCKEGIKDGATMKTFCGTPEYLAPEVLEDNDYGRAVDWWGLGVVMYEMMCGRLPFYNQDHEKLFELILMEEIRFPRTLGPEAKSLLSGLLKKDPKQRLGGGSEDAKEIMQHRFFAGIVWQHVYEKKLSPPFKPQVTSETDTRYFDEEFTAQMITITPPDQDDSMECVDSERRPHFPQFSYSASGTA
# Chain of Serine/threonine-protein kinase pim-1 (Homo sapiens) (P11309 whole entry, looked up): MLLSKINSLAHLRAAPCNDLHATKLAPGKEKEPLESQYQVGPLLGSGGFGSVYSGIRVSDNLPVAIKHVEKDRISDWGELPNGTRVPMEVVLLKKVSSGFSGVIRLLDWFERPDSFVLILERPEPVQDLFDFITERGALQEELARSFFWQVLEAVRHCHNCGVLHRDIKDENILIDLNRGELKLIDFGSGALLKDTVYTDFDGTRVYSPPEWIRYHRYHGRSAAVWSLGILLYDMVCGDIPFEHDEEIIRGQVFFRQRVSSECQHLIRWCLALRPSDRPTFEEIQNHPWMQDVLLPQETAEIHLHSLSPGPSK
# Chain of Fibroblast growth factor receptor 1 (Homo sapiens) (P11362 22-822 limits assumed): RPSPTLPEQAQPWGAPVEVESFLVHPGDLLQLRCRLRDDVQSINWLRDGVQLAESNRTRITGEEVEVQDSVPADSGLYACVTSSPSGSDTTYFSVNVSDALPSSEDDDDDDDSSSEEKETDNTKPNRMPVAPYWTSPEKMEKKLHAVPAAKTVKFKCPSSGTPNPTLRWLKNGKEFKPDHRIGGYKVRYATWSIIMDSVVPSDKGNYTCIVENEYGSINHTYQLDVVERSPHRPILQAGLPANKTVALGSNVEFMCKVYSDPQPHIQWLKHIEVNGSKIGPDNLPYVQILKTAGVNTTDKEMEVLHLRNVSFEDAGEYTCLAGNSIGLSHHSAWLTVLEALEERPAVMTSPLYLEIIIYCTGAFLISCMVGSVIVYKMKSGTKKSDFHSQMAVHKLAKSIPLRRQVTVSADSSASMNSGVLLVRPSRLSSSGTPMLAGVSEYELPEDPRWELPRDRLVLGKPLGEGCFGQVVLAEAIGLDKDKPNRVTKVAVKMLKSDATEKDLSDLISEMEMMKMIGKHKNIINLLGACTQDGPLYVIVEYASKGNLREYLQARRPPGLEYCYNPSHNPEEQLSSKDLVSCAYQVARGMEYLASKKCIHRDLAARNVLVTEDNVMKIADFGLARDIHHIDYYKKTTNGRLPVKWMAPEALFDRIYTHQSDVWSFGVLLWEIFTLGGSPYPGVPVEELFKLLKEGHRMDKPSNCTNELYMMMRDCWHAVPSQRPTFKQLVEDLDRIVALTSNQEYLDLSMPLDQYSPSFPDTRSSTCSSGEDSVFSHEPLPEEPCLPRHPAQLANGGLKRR
# Chain of Cyclin-dependent kinase 5/CDK5 activator 1 (Homo sapiens) (Q00535 whole entry): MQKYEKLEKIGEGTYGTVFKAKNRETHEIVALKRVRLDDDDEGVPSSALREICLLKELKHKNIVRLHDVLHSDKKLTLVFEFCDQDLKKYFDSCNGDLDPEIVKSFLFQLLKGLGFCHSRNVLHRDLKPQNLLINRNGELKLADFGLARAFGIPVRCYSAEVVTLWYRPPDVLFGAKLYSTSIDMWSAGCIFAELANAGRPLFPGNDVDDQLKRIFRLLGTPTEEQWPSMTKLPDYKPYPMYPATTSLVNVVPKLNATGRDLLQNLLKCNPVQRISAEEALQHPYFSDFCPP
# Chain of Cyclin-dependent kinase 5/CDK5 activator 1 (Homo sapiens) (Q15078 99-307 partner limits assumed): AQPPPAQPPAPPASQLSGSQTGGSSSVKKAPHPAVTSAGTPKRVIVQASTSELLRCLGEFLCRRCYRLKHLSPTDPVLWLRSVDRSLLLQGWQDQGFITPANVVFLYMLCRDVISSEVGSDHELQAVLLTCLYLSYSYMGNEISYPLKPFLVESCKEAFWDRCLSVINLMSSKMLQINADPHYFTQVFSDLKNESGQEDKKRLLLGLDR
# Chain of Proto-oncogene tyrosine-protein kinase receptor Ret (Homo sapiens) (P07949 whole entry): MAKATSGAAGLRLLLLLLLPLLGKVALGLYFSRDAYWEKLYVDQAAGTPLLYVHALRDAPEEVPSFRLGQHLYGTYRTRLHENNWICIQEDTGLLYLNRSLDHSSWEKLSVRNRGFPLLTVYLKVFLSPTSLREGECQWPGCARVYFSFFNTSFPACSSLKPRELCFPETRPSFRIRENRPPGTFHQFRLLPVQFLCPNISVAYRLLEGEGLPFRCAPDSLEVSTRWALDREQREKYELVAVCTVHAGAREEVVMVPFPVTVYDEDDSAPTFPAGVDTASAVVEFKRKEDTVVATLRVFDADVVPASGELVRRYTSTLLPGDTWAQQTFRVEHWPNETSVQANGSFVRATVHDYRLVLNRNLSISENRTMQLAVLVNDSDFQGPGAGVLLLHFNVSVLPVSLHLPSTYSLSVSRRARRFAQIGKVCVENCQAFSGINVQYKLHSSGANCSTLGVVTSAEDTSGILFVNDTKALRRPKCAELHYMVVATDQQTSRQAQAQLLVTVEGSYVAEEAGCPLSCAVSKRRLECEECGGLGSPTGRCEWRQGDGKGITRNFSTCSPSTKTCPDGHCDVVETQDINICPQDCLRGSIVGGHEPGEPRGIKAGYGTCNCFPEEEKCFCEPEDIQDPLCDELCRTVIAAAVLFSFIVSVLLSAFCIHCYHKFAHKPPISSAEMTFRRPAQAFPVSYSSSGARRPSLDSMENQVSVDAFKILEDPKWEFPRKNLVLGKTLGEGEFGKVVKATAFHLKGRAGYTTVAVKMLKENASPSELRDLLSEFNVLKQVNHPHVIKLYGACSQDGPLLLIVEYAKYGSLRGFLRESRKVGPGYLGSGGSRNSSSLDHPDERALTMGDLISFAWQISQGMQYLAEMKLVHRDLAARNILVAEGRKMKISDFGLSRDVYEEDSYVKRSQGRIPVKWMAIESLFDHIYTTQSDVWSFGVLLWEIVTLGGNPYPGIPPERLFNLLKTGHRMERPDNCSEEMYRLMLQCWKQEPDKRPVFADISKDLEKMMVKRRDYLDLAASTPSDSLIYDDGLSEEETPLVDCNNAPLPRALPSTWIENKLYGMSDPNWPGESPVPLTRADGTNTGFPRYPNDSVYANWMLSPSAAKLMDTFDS
# Chain of Ribosomal protein S6 kinase alpha-5 (Homo sapiens) (O75582 whole entry, looked up): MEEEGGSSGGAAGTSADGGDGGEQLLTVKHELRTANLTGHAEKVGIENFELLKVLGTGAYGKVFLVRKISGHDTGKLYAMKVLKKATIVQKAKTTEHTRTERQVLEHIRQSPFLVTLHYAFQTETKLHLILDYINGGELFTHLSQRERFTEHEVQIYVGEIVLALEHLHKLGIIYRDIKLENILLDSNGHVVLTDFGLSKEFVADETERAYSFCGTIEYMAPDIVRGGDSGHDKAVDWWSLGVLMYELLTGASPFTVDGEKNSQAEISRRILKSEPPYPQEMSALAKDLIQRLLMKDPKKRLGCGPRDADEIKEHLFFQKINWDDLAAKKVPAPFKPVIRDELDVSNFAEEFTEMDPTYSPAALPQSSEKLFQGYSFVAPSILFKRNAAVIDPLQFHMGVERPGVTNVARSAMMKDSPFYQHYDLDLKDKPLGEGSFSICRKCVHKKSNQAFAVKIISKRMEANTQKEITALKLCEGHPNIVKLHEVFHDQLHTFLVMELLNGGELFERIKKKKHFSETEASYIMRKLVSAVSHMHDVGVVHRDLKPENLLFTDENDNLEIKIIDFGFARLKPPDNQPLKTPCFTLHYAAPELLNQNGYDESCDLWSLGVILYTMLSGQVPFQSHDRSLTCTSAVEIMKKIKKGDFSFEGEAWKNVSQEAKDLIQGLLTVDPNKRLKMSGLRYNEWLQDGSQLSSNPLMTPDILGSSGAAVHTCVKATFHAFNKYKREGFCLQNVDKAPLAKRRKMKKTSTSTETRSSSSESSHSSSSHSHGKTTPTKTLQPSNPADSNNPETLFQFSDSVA
# Chain of Macrophage colony-stimulating factor 1 receptor (Homo sapiens) (P07333 whole entry): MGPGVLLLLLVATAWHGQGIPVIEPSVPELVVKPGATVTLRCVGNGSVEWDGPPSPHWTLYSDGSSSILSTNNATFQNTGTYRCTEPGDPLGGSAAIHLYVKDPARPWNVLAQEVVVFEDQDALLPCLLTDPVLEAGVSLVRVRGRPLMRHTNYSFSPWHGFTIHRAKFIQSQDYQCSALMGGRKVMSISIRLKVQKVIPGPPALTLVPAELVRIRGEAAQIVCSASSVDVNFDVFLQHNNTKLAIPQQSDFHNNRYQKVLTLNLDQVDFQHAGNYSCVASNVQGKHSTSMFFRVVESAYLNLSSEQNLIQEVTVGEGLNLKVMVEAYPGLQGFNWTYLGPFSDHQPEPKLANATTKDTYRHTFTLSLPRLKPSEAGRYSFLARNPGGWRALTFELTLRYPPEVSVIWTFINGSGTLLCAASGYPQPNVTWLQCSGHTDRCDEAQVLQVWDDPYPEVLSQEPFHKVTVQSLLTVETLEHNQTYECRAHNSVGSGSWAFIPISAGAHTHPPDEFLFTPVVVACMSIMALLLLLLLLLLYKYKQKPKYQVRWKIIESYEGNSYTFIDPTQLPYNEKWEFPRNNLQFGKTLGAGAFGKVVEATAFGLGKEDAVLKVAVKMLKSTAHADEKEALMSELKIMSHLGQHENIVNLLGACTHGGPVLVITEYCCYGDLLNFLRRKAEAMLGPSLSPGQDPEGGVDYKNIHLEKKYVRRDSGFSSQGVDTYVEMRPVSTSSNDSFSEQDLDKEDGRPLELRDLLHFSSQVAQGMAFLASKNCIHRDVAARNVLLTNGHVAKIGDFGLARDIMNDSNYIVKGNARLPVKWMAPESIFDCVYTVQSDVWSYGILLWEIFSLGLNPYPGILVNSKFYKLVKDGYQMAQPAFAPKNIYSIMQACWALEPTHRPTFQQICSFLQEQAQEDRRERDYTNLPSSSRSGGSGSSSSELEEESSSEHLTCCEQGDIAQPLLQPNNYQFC
IC50 [20] [µM],Structure (SMILES),IC50 [1] [µM],IC50 [2] [µM],IC50 [3] [µM],IC50 [4] [µM],inhibition [5] [%],inhibition [6] [%],inhibition [7] [%],ΔTm [8] [°C],IC50 [9] [µM],inhibition [10] [%],inhibition [11] [%],IC50 [12] [µM],inhibition [13] [%],inhibition [14] [%],inhibition [15] [%],inhibition [16] [%],inhibition [17] [%],inhibition [18] [%],inhibition [19] [%]
,Nc1ncccc1-c1nc2cccnc2n1-c1ccc(CNC(=O)c2ccccc2)cc1,> 10,> 10,> 100,> 10,> 25,> 25,> 25,6.4,> 10,> 25,> 25,0.023,> 25,> 25,> 25,> 25,> 25,> 25,> 25
14,Nc1ncccc1-c1nc2cccnc2n1-c1ccc(CC(=O)Nc2ccccc2)cc1,> 10,> 10,57,> 10,> 25,> 25,> 25,6.7,> 10,> 25,> 25,,> 25,> 25,> 25,> 25,> 25,> 25,> 25

# Source: ChEMBL document CHEMBL2176970, “Discovery and optimization of a series of 3-(3-phenyl-3H-imidazo[4,5-b]pyridin-2-yl)pyridin-2-amines: orally bioavailable, selective, and potent ATP-independent Akt inhibitors” (J Med Chem, 2012)
